Assay [1] deals with T1, Human thrombin (Homo sapiens, UniProt P00734).
T1 construct: Thrombin (fIIa, the active form of prothrombin) is another serine protease; purchased Haematologic Technologies Inc
The experiment in a line: thrombin protease inhibition assay (chromogenic substrate S-2238). The format is biochemical. The conditions noted are these: 3 nM thrombin, 125 μM S-2238, 10 min pre-incubation, RT, read at 405 nm. As to the method: The thrombin activity reported herein (e.g., Table A) was obtained as follows. […] Thrombin was assayed in buffer containing 0.05 M Tris (pH 7.4), 0.015 M NaCl and 0.01% PEG-8000. The final concentration of enzyme used was 3 nM thrombin. […] All assays were performed in 96-well microtiter plates at room temperature (RT). […] Inhibitor IC50 values were determined by adding test compound as ten point, three-fold serial dilutions in buffer solution, as known in the art. The plate was read at 10 minutes after substrate addition. The IC50 was calculated by plotting the percent (%) inhibition against compound concentration and fitting the data to a constrained four parameter sigmoidal curve, as known in the art.

For assay [2], the target named is T2, Human KLKB1 protein (Homo sapiens, UniProt P03952).
T2 construct: purchased Enzyme Research Labs
The assay can be described thus: KLKB1 kallikrein protease inhibition assay (chromogenic substrate S-2302). Format: biochemical. The conditions noted are these: 3 nM KLKB1, 250 μM S-2302, 10 min pre-incubation, RT, read at 405 nm. As to the method: The KLKB1 kallikrein activity reported herein (e.g., Table A) was obtained as follows. Human KLKB1 protein was obtained from Enzyme Research Labs. The chromogenic substrate S-2302 was obtained from DiaPharma. KLKB1 was assayed in buffer containing 0.05 M Tris (pH 7.4), 0.01 M NaCl and 0.2% w/v PEG-8000. The final concentration of enzyme used was 3 nM KLKB1. The final concentration of substrate used was 250 μM S-2302 for KLKB1. All assays were performed in 96-well microtiter plates at room temperature (RT). […] The plate was read at 10 minutes after substrate addition. The IC50 was calculated by plotting the percent (%) inhibition against compound concentration and fitting the data to a constrained four parameter sigmoidal curve, as known in the art.

Usually IC50 stands for the concentration needed to halve the response being measured. High values mean weaker potency, low ones greater potency.

T2 sequence (P03952 391-638 limits assumed): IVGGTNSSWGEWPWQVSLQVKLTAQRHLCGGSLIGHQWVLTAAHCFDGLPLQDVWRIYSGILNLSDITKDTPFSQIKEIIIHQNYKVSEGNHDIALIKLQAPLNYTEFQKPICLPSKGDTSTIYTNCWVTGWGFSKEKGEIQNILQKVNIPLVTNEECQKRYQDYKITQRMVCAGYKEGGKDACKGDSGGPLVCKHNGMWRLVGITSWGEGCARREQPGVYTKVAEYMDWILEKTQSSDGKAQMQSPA
T2 sequence (P03952 20-390 partner limits assumed): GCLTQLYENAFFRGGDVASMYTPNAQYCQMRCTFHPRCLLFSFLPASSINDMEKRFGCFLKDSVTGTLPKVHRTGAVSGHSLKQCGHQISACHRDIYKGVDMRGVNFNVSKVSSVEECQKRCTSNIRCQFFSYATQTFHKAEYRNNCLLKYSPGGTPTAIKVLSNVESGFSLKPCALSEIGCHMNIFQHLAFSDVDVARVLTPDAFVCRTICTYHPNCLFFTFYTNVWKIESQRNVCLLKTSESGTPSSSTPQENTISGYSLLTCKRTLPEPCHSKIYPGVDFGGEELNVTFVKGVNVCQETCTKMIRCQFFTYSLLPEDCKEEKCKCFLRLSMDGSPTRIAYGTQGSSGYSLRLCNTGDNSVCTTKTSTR

Take `CC(C)(C)C(=O)n1nc(-c2ccn(Cc3ccccn3)c(=O)c2)cc1NCc1ccc(Cl)s1` [Entry 10, 4-(5-[(5-chlorothiophen-2-yl)methyl]amino-1-(2,2-dimethylpropanoyl)-1H-pyrazol-3-yl)-1-(pyridin-2-ylmethyl)-1,2-dihydropyridin-2-one]: the IC50 in assay [1] was < 0.1 µM; in assay [2], 1 to 10 µM.
Turning to `O=C(c1ccsc1)n1nc(-c2cc(Br)c[nH]c2=O)cc1NCc1ccc(Cl)s1` [Entry 41, 5-bromo-3-(5-[(5-chlorothiophen-2-yl)methyl]amino-1-(thiophene-3-carbonyl)-1H-pyrazol-3-yl)-1,2-dihydropyridin-2-one], the results for the IC50 in assay [1] and in assay [2] were < 0.1 µM and 0.1 to 1 µM, respectively.
For the compound `COCCn1ccc(-c2cc(NCc3ccc(Cl)s3)n(C(=O)c3ccoc3)n2)cc1=O` [Entry 17, 4-(5-[(5-chlorothiophen-2-yl)methyl]amino-1-(furan-3-carbonyl)-1H-pyrazol-3-yl)-1-(2-methoxyethyl)-1,2-dihydropyridin-2-one], the IC50 was < 0.1 µM in assay [1] and 1 to 10 µM in assay [2].
The like results for `O=C(c1ccsc1)n1nc(-c2ccn(CCN3CCOCC3)c(=O)c2)cc1NCc1ccc(Cl)s1` [Entry 27, 4-(5-[(5-chlorothiophen-2-yl)methyl]amino-1-(thiophene-3-carbonyl)-1H-pyrazol-3-yl)-1-[2-(morpholin-4-yl)ethyl]-1,2-dihydropyridin-2-one] were, in that order, < 0.1 µM and 0.1 to 1 µM.
`Cc1c[nH]c(=O)c(-c2cc(NCc3ccc(Cl)s3)n(C(=O)c3ccoc3)n2)c1` [Entry 4, 3-(5-[(5-chlorothiophen-2-yl)methyl]amino-1-(furan-3-carbonyl)-1H-pyrazol-3-yl)-5-methyl-1,2-dihydropyridin-2-one]: the IC50 in assay [1] is < 0.1 µM; in assay [2], 0.1 to 1 µM.
The compound `CC(C)(C)C(=O)n1nc(-c2ccc(=O)[nH]c2)cc1NCc1ccc(Cl)s1` [Entry 31, 5-(5-[(5-chlorothiophen-2-yl)methyl]amino-1-(2,2-dimethylpropanoyl)-1H-pyrazol-3-yl)-1,2-dihydropyridin-2-one] yielded an IC50 in assay [2] of 10 to 100 µM.
As to `O=c1[nH]cc(Br)cc1-c1cc(NCc2ccc(Cl)s2)[nH]n1` [Entry 42, 5-bromo-3-(5-[(5-chlorothiophen-2-yl)methyl]amino-1H-pyrazol-3-yl)-1,2-dihydropyridin-2-one], the IC50 was > 100 µM in assay [1] and 10 to 100 µM in assay [2].
In the case of `CC(C)(C)C(=O)n1nc(-c2ccn(CC(=O)N3CCOCC3)c(=O)c2)cc1NCc1ccc(Cl)s1` [Entry 12, 4-(5-[(5-chlorothiophen-2-yl)methyl]amino-1-(2,2-dimethylpropanoyl)-1H-pyrazol-3-yl)-1-[2-(morpholin-4-yl)-2-oxoethyl]-1,2-dihydropyridin-2-one], the IC50 in assay [2] lay in the range of 10 to 100 µM.
In the case of `CC(C)(C)C(=O)n1nc(-c2c[nH]c(=O)c(-c3ccccc3)c2)cc1NCc1ccc(Cl)s1` [Entry 35, 5-(5-[(5-chlorothiophen-2-yl)methyl]amino-1-(2,2-dimethylpropanoyl)-1H-pyrazol-3-yl)-3-phenyl-1,2-dihydropyridin-2-one], the IC50 in assay [1] is 1 to 10 µM; in assay [2], 10 to 100 µM.
As for `C=Cc1ccc(-c2cc(NCc3ccc(Cl)s3)n(C(=O)C(C)(C)C)n2)[nH]c1=O` [Entry 46, 6-(5-[(5-chlorothiophen-2-yl)methyl]amino-1-(2,2-dimethylpropanoyl)-1H-pyrazol-3-yl)-3-ethenyl-1,2-dihydropyridin-2-one], the IC50 in assay [1] is < 0.1 µM; in assay [2], 10 to 100 µM.
`O=C(c1ccoc1)n1nc(-c2ccc(Br)c(=O)[nH]2)cc1NCc1ccc(Cl)s1` [Entry 7, 3-bromo-6-(5-[(5-chlorothiophen-2-yl)methyl]amino-1-(furan-3-carbonyl)-1H-pyrazol-3-yl)-1,2-dihydropyridin-2-one]: the IC50 was 0.1 to 1 µM in assay [1] and 10 to 100 µM in assay [2].
As for `COc1ccccc1C(=O)n1nc(-c2cc(-c3cccnc3)c[nH]c2=O)cc1NCc1ccc(Cl)s1` [Entry 3, 3-(5-[(5-chlorothiophen-2-yl)methyl]amino-1-(2-methoxybenzoyl)-1H-pyrazol-3-yl)-5-(pyridin-3-yl)-1,2-dihydropyridin-2-one], the IC50 in assay [1] and in assay [2] was 0.1 to 1 µM in each case.
As to `CC(C)(C)C(=O)n1nc(-c2cc(-c3ccccc3)c[nH]c2=O)cc1NCc1ccc(Cl)s1` [Entry 2, 3-(5-[(5-chlorothiophen-2-yl)methyl]amino-1-(2,2-dimethylpropanoyl)-1H-pyrazol-3-yl)-5-phenyl-1,2-dihydropyridin-2-one], the IC50 in assay [1] is < 0.1 µM; in assay [2] it was 10 to 100 µM.
As for `O=C(c1ccsc1)n1nc(-c2ccn(Cc3cccnc3)c(=O)c2)cc1NCc1ccc(Cl)s1` [Entry 25, 4-(5-[(5-chlorothiophen-2-yl)methyl]amino-1-(thiophene-3-carbonyl)-1H-pyrazol-3-yl)-1-(pyridin-3-ylmethyl)-1,2-dihydropyridin-2-one], the IC50 in assay [1] and in assay [2] was < 0.1 µM in each case.
As for `O=C(c1ccsc1)n1nc(-c2cc[nH]c(=O)c2)cc1NCc1ccc(Cl)s1` [Entry 22, 4-(5-[(5-chlorothiophen-2-yl)methyl]amino-1-(thiophene-3-carbonyl)-1H-pyrazol-3-yl)-1,2-dihydropyridin-2-one], the figures for the IC50 in assay [1] and in assay [2] were < 0.1 µM and 0.1 to 1 µM, respectively.
Turning to `CC(C)(C)C(=O)n1nc(-c2ccc(=O)n(CC(=O)N3CCOCC3)c2)cc1NCc1ccc(Cl)s1` [Entry 32, 5-(5-[(5-chlorothiophen-2-yl)methyl]amino-1-(2,2-dimethylpropanoyl)-1H-pyrazol-3-yl)-1-[2-(morpholin-4-yl)-2-oxoethyl]-1,2-dihydropyridin-2-one], the IC50 in assay [2] is > 100 µM.
Take `O=c1cccc(-c2cc(NCc3ccc(Cl)s3)[nH]n2)[nH]1` [Entry 47, 6-(5-[(5-chlorothiophen-2-yl)methyl]amino-1H-pyrazol-3-yl)-1,2-dihydropyridin-2-one]: the IC50 in assay [1] and in assay [2] was > 100 µM throughout.
As to `O=C(c1ccsc1)n1nc(-c2ccn(Cc3ccccn3)c(=O)c2)cc1NCc1ccc(Cl)s1` [Entry 24, 4-(5-[(5-chlorothiophen-2-yl)methyl]amino-1-(thiophene-3-carbonyl)-1H-pyrazol-3-yl)-1-(pyridin-2-ylmethyl)-1,2-dihydropyridin-2-one], the IC50 in assay [1] and in assay [2] was < 0.1 µM in each case.
In the case of `CC(C)(C)C(=O)n1nc(-c2cc(Br)cn(CC(=O)N3CCOCC3)c2=O)cc1NCc1ccc(Cl)s1` [Entry 40, 5-bromo-3-(5-[(5-chlorothiophen-2-yl)methyl]amino-1-(2,2-dimethylpropanoyl)-1H-pyrazol-3-yl)-1-[2-(morpholin-4-yl)-2-oxoethyl]-1,2-dihydropyridin-2-one], the half-maximal inhibitory concentration (IC50) is < 0.1 µM in assay [1] and 1 to 10 µM in assay [2].
Take `O=C(c1ccoc1)n1nc(-c2cc[nH]c(=O)c2)cc1NCc1ccc(Cl)s1` [Entry 16, 4-(5-[(5-chlorothiophen-2-yl)methyl]amino-1-(furan-3-carbonyl)-1H-pyrazol-3-yl)-1,2-dihydropyridin-2-one]: the values for the IC50 in assay [1] and in assay [2] were < 0.1 µM and 1 to 10 µM, respectively.
The like results for `CC(C)(C)C(=O)n1nc(-c2cc(Br)c[nH]c2=O)cc1NCc1ccc(Cl)s1` [Entry 39, 5-bromo-3-(5-[(5-chlorothiophen-2-yl)methyl]amino-1-(2,2-dimethylpropanoyl)-1H-pyrazol-3-yl)-1,2-dihydropyridin-2-one] were, in that order, < 0.1 µM and 10 to 100 µM.
Regarding `O=c1cc(-c2cc(NCc3ccc(Cl)s3)[nH]n2)ccn1Cc1cccnc1` [Entry 30, 4-(5-[(5-chlorothiophen-2-yl)methyl]amino-1H-pyrazol-3-yl)-1-(pyridin-3-ylmethyl)-1,2-dihydropyridin-2-one], the IC50 in assay [1] and in assay [2] was > 100 µM in each case.
On to `CC(C)(C)C(=O)n1nc(-c2cccc(=O)n2Cc2ccccn2)cc1NCc1ccc(Cl)s1` [Entry 44, 6-(5-[(5-chlorothiophen-2-yl)methyl]amino-1-(2,2-dimethylpropanoyl)-1H-pyrazol-3-yl)-1-(pyridin-2-ylmethyl)-1,2-dihydropyridin-2-one], for which the IC50 in assay [2] was > 100 µM.
Same read-out and setting: the same measure for `CC(C)(C)C(=O)n1nc(-c2cccc(=O)[nH]2)cc1NCc1ccc(Cl)s1` [Entry 43, 6-(5-[(5-chlorothiophen-2-yl)methyl]amino-1-(2,2-dimethylpropanoyl)-1H-pyrazol-3-yl)-1,2-dihydropyridin-2-one]: 1 to 10 µM; for `CC(C)(C)C(=O)n1nc(-c2cccc(=O)n2CC(=O)N2CCOCC2)cc1NCc1ccc(Cl)s1` [Entry 45, 6-(5-[(5-chlorothiophen-2-yl)methyl]amino-1-(2,2-dimethylpropanoyl)-1H-pyrazol-3-yl)-1-[2-(morpholin-4-yl)-2-oxoethyl]-1,2-dihydropyridin-2-one]: > 100 µM.
